Test results from article PMC3399817 (PLoS ONE, 2012).

Key:
Experiment in all cases: KINOMEscan
Assay type in all cases: binding
[1] = molecular target: T1, CDK11 (Homo sapiens, UniProt Q9BWU1); conditions: CDK11, 1 uM
T1 construct: purchased Ambit KINOMEscan (DiscoverX)
In short: (§1)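 Binding assay, no enzymatic read-out; all compounds tested at 1 μM to find kinases whose substrate binding they inhibit.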

[2] = molecular target: T2, ASK1 (Homo sapiens, UniProt Q99683); conditions: ASK1, 1 uM
T2 construct: purchased Ambit KINOMEscan (DiscoverX)
In short: as §1

[3] = molecular target: T3, EGFR(E746-A750del) (Homo sapiens, UniProt P00533, DEL746-750); conditions: 1 uM
T3 construct: purchased Ambit KINOMEscan (DiscoverX)
T3 sequence (P00533 with tags, fused parts or gaps DEL746-750 limits assumed): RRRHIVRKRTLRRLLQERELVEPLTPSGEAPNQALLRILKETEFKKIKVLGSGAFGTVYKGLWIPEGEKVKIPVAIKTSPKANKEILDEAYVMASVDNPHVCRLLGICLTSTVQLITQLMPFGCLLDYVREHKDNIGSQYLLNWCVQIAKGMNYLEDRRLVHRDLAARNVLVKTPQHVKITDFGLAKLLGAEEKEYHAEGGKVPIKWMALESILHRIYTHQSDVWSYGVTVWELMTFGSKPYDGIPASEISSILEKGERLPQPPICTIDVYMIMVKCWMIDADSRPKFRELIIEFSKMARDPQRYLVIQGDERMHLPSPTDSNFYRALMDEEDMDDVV
In short: as §1

[4] = molecular target: T4, ERBB3 (Homo sapiens, UniProt P21860); conditions: ERBB3, 1 uM
T4 construct: purchased Ambit KINOMEscan (DiscoverX)
In short: as §1

[5] = molecular target: T5, AXL (Homo sapiens, UniProt P30530); conditions: 1 uM
T5 construct: purchased Ambit KINOMEscan (DiscoverX)
In short: as §1

[6] = molecular target: T6, ZAP70 (Homo sapiens, UniProt P43403); conditions: ZAP70, 1 uM
T6 construct: purchased Ambit KINOMEscan (DiscoverX)
In short: as §1

[7] = molecular target: T7, JAK3(JH1domain-catalytic) (Homo sapiens, UniProt P52333); conditions: 1 uM
T7 construct: JAK3(JH1domain-catalytic); purchased Ambit KINOMEscan (DiscoverX)
In short: as §1

[8] = molecular target: T8, CDKL5 (Homo sapiens, UniProt O76039); conditions: CDKL5, 1 uM
T8 construct: purchased Ambit KINOMEscan (DiscoverX)
In short: as §1

[9] = molecular target: T9, BIKE (Homo sapiens, UniProt Q9NSY1); conditions: 1 uM
T9 construct: purchased Ambit KINOMEscan (DiscoverX)
In short: as §1

[10] = molecular target: T10, YES (Homo sapiens, UniProt P07947); conditions: 1 uM
T10 construct: purchased Ambit KINOMEscan (DiscoverX)
In short: as §1

[11] = molecular target: T11, SYK (Homo sapiens, UniProt P43405); conditions: for % binding compared to no inhibitor control: 1 uM
T11 construct: purchased Ambit KINOMEscan (DiscoverX)
In short: as §1

[12] = molecular target: T12, p38-gamma (Homo sapiens, UniProt P53778); conditions: 1 uM
T12 construct: purchased Ambit KINOMEscan (DiscoverX)
In short: as §1

[13] = molecular target: T13, STK39 (Homo sapiens, UniProt Q9UEW8); conditions: STK39, 1 uM
T13 construct: purchased Ambit KINOMEscan (DiscoverX)
In short: as §1

[14] = molecular target: T14, ABL1(H396P)-nonphosphorylated (Homo sapiens, UniProt P00519, H396P); conditions: 1 uM
T14 construct: purchased Ambit KINOMEscan (DiscoverX)
In short: as §1

[15] = molecular target: T15, STK16 (Homo sapiens, UniProt O75716); conditions: STK16, 1 uM
T15 construct: purchased Ambit KINOMEscan (DiscoverX)
In short: as §1

[16] = molecular target: T16, ARK5 (Homo sapiens, UniProt O60285); conditions: ARK5, 1 uM
T16 construct: purchased Ambit KINOMEscan (DiscoverX)
In short: as §1

[17] = molecular target: T17, MKNK1 (Homo sapiens, UniProt Q9BUB5); conditions: MKNK1, 1 uM
T17 construct: purchased Ambit KINOMEscan (DiscoverX)
In short: as §1

[18] = molecular target: T18, HIPK4 (Homo sapiens, UniProt Q8NE63); conditions: HIPK4, 1 uM
T18 construct: purchased Ambit KINOMEscan (DiscoverX)
In short: as §1

[19] = molecular target: T19, CSNK1E (Homo sapiens, UniProt P49674); conditions: 1 uM
T19 construct: purchased Ambit KINOMEscan (DiscoverX)
In short: as §1

[20] = molecular target: T20, ITK (Homo sapiens, UniProt Q08881); conditions: 1 uM
T20 construct: purchased Ambit KINOMEscan (DiscoverX)
T20 sequence (Q08881 whole entry): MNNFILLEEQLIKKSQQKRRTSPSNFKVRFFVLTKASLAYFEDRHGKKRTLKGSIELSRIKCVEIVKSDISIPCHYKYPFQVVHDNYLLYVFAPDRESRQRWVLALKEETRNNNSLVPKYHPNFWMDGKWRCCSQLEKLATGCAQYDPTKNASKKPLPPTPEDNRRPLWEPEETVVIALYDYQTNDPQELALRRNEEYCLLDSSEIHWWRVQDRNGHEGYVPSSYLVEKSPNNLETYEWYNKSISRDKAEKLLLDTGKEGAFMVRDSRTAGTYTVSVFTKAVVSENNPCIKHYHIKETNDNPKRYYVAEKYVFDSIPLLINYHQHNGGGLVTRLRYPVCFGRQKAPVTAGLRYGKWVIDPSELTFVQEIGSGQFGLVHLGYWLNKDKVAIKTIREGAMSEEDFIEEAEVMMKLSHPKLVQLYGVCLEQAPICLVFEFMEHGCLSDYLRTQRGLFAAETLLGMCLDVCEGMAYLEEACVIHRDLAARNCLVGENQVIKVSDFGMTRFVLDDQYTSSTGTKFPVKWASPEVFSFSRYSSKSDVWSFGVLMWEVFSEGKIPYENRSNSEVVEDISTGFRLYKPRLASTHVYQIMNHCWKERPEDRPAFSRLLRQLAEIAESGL
In short: as §1

[21] = molecular target: T21, RIOK1 (Homo sapiens, UniProt Q9BRS2); conditions: RIOK1, 1 uM
T21 construct: purchased Ambit KINOMEscan (DiscoverX)
In short: as §1

[22] = molecular target: T22, MEK6 (Homo sapiens, UniProt P52564); conditions: MEK6, 1 uM
T22 construct: purchased Ambit KINOMEscan (DiscoverX)
In short: as §1

[23] = molecular target: T23, MAP3K4 (Homo sapiens, UniProt Q9Y6R4); conditions: MAP3K4, 1 uM
T23 construct: purchased Ambit KINOMEscan (DiscoverX)
T23 sequence (Q9Y6R4 whole entry): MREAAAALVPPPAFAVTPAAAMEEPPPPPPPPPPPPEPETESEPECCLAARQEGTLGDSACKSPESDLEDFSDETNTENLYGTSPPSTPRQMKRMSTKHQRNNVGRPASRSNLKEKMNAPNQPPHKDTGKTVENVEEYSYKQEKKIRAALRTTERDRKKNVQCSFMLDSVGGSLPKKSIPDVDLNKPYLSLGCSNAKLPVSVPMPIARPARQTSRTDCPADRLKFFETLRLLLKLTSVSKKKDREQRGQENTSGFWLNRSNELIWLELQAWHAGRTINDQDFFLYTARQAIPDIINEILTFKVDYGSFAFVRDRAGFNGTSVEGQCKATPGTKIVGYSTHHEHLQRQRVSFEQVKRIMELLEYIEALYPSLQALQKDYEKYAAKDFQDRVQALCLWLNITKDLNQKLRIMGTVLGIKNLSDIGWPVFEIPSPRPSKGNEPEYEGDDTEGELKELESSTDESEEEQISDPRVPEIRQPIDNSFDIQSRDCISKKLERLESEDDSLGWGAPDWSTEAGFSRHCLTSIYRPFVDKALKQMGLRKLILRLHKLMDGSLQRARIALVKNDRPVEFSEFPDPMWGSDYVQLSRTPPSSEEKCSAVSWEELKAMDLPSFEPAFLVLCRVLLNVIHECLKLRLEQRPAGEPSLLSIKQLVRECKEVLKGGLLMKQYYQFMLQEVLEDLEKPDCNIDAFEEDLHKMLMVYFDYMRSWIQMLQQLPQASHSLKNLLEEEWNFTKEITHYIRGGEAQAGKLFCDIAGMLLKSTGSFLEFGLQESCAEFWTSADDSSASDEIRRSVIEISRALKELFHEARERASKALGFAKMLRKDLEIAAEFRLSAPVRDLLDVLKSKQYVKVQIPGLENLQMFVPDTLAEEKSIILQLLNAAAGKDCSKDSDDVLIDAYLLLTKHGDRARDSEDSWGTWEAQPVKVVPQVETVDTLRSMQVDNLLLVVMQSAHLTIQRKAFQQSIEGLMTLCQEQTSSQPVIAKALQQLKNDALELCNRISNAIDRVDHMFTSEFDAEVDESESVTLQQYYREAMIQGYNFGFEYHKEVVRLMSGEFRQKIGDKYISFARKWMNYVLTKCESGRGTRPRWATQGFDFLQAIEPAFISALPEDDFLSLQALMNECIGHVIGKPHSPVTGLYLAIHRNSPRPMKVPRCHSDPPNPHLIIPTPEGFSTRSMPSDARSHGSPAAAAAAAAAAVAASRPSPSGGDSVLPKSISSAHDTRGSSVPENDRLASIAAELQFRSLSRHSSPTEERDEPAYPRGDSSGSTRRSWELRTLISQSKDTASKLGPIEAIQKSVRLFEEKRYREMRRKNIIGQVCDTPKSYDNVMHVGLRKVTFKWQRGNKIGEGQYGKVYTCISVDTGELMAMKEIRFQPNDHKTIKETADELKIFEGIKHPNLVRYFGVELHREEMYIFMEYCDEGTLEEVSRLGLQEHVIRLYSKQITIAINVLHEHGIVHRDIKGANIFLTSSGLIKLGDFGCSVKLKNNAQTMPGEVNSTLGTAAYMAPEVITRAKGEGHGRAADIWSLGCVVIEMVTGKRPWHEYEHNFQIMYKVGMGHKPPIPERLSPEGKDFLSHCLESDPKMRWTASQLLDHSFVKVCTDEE
In short: as §1

[24] = molecular target: T24, DRAK1 (Homo sapiens, UniProt Q9UEE5); conditions: DRAK1, 1 uM
T24 construct: purchased Ambit KINOMEscan (DiscoverX)
In short: as §1

[25] = molecular target: T25, DDR1 (Homo sapiens, UniProt Q08345); conditions: DDR1, 1 uM
T25 construct: purchased Ambit KINOMEscan (DiscoverX)
In short: as §1

[26] = molecular target: T26, HIPK3 (Homo sapiens, UniProt Q9H422); conditions: HIPK3, 1 uM
T26 construct: purchased Ambit KINOMEscan (DiscoverX)
In short: as §1

[27] = molecular target: T27, HCK (Homo sapiens, UniProt P08631); conditions: 1 uM
T27 construct: purchased Ambit KINOMEscan (DiscoverX)
In short: as §1

[28] = molecular target: T28, PKN1 (Homo sapiens, UniProt Q16512); conditions: PKN1, 1 uM
T28 construct: purchased Ambit KINOMEscan (DiscoverX)
In short: as §1

[29] = molecular target: T29, PIM2 (Homo sapiens, UniProt Q9P1W9); conditions: PIM2, 1 uM
T29 construct: purchased Ambit KINOMEscan (DiscoverX)
In short: as §1

[30] = molecular target: T30, INSRR (Homo sapiens, UniProt P14616); conditions: 1 uM
T30 construct: purchased Ambit KINOMEscan (DiscoverX)
In short: as §1

[31] = molecular target: T31, FGFR3 (Homo sapiens, UniProt P22607); conditions: FGFR3, 1 uM
T31 construct: purchased Ambit KINOMEscan (DiscoverX)
In short: as §1

[32] = molecular target: T32, BRAF (Homo sapiens, UniProt P15056); conditions: 1 uM
T32 construct: purchased Ambit KINOMEscan (DiscoverX)
In short: as §1

[33] = molecular target: T33, STK36 (Homo sapiens, UniProt Q9NRP7); conditions: STK36, 1 uM
T33 construct: purchased Ambit KINOMEscan (DiscoverX)
In short: as §1

[34] = molecular target: T34, MARK2 (Homo sapiens, UniProt Q7KZI7); conditions: MARK2, 1 uM
T34 construct: purchased Ambit KINOMEscan (DiscoverX)
T34 sequence (Q7KZI7 whole entry): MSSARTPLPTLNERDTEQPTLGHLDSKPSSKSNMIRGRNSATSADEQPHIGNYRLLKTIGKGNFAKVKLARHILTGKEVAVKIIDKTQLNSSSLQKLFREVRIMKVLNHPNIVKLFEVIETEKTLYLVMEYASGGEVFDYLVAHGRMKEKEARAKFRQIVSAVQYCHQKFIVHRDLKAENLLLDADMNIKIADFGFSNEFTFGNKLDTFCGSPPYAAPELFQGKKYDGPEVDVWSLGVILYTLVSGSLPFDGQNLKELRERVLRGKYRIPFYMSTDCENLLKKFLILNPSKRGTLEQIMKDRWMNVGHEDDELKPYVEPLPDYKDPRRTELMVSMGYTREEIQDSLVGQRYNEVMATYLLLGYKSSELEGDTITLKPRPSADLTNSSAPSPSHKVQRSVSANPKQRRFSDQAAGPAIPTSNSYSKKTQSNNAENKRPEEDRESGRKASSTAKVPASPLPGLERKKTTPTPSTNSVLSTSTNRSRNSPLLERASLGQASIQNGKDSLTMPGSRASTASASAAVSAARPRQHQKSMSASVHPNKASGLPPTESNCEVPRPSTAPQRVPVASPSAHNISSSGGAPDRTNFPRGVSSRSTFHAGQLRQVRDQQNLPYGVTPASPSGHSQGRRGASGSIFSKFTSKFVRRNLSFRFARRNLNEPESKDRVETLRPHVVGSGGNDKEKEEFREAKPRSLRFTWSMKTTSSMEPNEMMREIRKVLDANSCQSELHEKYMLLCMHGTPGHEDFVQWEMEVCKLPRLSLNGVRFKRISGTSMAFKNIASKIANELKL
In short: as §1

[35] = molecular target: T35, ULK2 (Homo sapiens, UniProt Q8IYT8); conditions: ULK2, 1 uM
T35 construct: purchased Ambit KINOMEscan (DiscoverX)
T35 sequence (Q8IYT8 whole entry): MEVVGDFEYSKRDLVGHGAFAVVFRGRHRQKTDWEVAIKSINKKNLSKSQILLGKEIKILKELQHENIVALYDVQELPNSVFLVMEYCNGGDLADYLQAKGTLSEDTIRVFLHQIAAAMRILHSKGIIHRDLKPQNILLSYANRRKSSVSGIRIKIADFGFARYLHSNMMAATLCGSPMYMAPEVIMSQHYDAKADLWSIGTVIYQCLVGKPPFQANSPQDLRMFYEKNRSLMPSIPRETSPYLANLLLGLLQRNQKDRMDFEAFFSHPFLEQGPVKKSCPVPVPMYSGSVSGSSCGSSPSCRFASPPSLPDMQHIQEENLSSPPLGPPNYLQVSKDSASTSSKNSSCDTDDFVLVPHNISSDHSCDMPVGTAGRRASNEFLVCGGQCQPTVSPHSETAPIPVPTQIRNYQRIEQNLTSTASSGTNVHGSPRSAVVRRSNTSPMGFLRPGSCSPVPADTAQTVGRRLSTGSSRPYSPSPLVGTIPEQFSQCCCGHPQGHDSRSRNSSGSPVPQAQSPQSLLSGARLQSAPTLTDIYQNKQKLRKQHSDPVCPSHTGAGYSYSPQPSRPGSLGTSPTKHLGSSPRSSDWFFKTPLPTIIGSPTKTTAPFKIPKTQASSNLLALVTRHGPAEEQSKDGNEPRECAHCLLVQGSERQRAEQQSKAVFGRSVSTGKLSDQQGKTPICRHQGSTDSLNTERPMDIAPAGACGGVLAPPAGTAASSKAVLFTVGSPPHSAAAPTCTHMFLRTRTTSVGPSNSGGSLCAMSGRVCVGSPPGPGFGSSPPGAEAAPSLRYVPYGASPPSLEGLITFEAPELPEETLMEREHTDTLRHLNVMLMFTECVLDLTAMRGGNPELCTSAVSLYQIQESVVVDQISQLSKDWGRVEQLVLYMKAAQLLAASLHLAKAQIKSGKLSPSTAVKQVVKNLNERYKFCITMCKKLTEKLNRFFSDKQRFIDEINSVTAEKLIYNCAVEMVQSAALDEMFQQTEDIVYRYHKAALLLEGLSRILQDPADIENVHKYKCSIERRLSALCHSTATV
In short: as §1

[36] = molecular target: T36, MEK4 (Homo sapiens, UniProt P45985); conditions: MEK4, 1 uM
T36 construct: purchased Ambit KINOMEscan (DiscoverX)
In short: as §1

[37] = molecular target: T37, JNK1 (Homo sapiens, UniProt P45983); conditions: JNK1, 1 uM
T37 construct: purchased Ambit KINOMEscan (DiscoverX)
In short: as §1

[38] = molecular target: T38, PFTK1 (Homo sapiens, UniProt O94921); conditions: PFTK1, 1 uM
T38 construct: purchased Ambit KINOMEscan (DiscoverX)
In short: as §1

[39] = molecular target: T39, CSNK1A1 (Homo sapiens, UniProt P48729); conditions: CSNK1A1, 1 uM
T39 construct: purchased Ambit KINOMEscan (DiscoverX)
In short: as §1

[40] = molecular target: T40, LTK (Homo sapiens, UniProt P29376); conditions: 1 uM
T40 construct: purchased Ambit KINOMEscan (DiscoverX)
In short: as §1

T1 sequence (Q9BWU1 whole entry): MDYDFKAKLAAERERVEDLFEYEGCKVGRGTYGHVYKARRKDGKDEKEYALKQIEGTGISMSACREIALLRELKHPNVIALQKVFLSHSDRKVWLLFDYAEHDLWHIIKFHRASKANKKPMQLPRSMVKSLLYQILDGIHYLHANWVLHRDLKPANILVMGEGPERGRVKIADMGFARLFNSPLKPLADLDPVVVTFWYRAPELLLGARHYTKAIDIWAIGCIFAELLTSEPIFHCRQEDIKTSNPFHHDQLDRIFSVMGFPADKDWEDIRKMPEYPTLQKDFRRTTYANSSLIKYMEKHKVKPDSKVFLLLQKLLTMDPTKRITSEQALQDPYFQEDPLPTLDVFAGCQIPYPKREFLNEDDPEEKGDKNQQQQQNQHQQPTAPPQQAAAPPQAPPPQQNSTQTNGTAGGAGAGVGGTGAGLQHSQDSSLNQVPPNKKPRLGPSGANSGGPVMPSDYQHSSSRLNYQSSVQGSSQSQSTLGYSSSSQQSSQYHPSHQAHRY

Structure (SMILES): COc1ccc(-c2cc3nccn3c(Nc3ncccc3C(N)=O)n2)cc1OC.Cl.Cl [BAY61-3606, 2-[7-(3,4-dimethoxyphenyl)-imidazo [1,2-c]pyrimidin-5-ylamino] nicotinamide dihydrochloride, reference compound]
- % binding compared to no inhibitor control [1]: 100%
- % binding compared to no inhibitor control [2]: 100%
- % binding compared to no inhibitor control [3]: 49%
- % binding compared to no inhibitor control [4]: 100%
- % binding compared to no inhibitor control [5]: 92%
- % binding compared to no inhibitor control [6]: 9%
- % binding compared to no inhibitor control [7]: 100%
- % binding compared to no inhibitor control [8]: 60%
- % binding compared to no inhibitor control [9]: 22%
- % binding compared to no inhibitor control [10]: 96%
- % binding compared to no inhibitor control [11]: 6.1%
- % inhibition ATP binding ([11]; KINOMEscan, 1 μM): 93.9%
- % binding compared to no inhibitor control [12]: 47%
- % binding compared to no inhibitor control [13]: 46%
- % binding compared to no inhibitor control [14]: 96%
- % binding compared to no inhibitor control [15]: 30%
- % binding compared to no inhibitor control [16]: 62%
- % binding compared to no inhibitor control [17]: 52%
- % binding compared to no inhibitor control [18]: 29%
- % binding compared to no inhibitor control [19]: 94%
- % binding compared to no inhibitor control [20]: 100%
- % binding compared to no inhibitor control [21]: 31%
- % binding compared to no inhibitor control [22]: 40%
- % binding compared to no inhibitor control [23]: 100%
- % binding compared to no inhibitor control [24]: 57%
- % binding compared to no inhibitor control [25]: 99%
- % binding compared to no inhibitor control [26]: 36%
- % binding compared to no inhibitor control [27]: 88%
- % binding compared to no inhibitor control [28]: 47%
- % binding compared to no inhibitor control [29]: 87%
- % binding compared to no inhibitor control [30]: 80%
- % binding compared to no inhibitor control [31]: 100%
- % binding compared to no inhibitor control [32]: 90%
- % binding compared to no inhibitor control [33]: 74%
- % binding compared to no inhibitor control [34]: 63%
- % binding compared to no inhibitor control [35]: 69%
- % binding compared to no inhibitor control [36]: 45%
- % binding compared to no inhibitor control [37]: 18%
- % binding compared to no inhibitor control [38]: 100%
- % binding compared to no inhibitor control [39]: 100%
- % binding compared to no inhibitor control [40]: 46%

Structure (SMILES): COc1ccccc1Nc1nc(-c2ccc(OC)c(OC)c2)cc2nccn12 [BAY derivative 6]
- % binding compared to no inhibitor control [1]: 100%
- % binding compared to no inhibitor control [2]: 100%
- % binding compared to no inhibitor control [3]: 75%
- % binding compared to no inhibitor control [4]: 87%
- % binding compared to no inhibitor control [5]: 89%
- % binding compared to no inhibitor control [6]: 100%
- % binding compared to no inhibitor control [7]: 100%
- % binding compared to no inhibitor control [8]: 100%
- % binding compared to no inhibitor control [9]: 53%
- % binding compared to no inhibitor control [10]: 57%
- % binding compared to no inhibitor control [11]: 48%
- % binding compared to no inhibitor control [12]: 56%
- % binding compared to no inhibitor control [13]: 97%
- % binding compared to no inhibitor control [14]: 92%
- % binding compared to no inhibitor control [15]: 47%
- % binding compared to no inhibitor control [16]: 93%
- % binding compared to no inhibitor control [17]: 72%
- % binding compared to no inhibitor control [18]: 98%
- % binding compared to no inhibitor control [19]: 100%
- % binding compared to no inhibitor control [20]: 100%
- % binding compared to no inhibitor control [21]: 95%
- % binding compared to no inhibitor control [22]: 97%
- % binding compared to no inhibitor control [23]: 99%
- % binding compared to no inhibitor control [24]: 100%
- % binding compared to no inhibitor control [25]: 100%
- % binding compared to no inhibitor control [26]: 95%
- % binding compared to no inhibitor control [27]: 83%
- % binding compared to no inhibitor control [28]: 100%
- % binding compared to no inhibitor control [29]: 91%
- % binding compared to no inhibitor control [30]: 91%
- % binding compared to no inhibitor control [31]: 100%
- % binding compared to no inhibitor control [32]: 100%
- % binding compared to no inhibitor control [33]: 100%
- % binding compared to no inhibitor control [34]: 65%
- % binding compared to no inhibitor control [35]: 86%
- % binding compared to no inhibitor control [36]: 100%
- % binding compared to no inhibitor control [37]: 95%
- % binding compared to no inhibitor control [38]: 100%
- % binding compared to no inhibitor control [39]: 100%
- % binding compared to no inhibitor control [40]: 30%
